Starred links: 1 amine or outer side, 2 acyl side, 3 side chain; linkers in the order of their positions; H or OH if unused. Residues, ends and D or L forms follow the SMILES beside them. *: point of attachment. AFC = O=c1cc(C(F)(F)F)c2ccc(N*)cc2o1; Morpholide = C1CN(*)CCO1; Cbz = O=C(OCc1ccccc1)*; CO = O=C([*:1])[*:2]; CH2F = FC*
Assays:
[1] = tested on: purified Taenia solium cysteine protease; assay: Protease inactivator inhibition assay (EC100, Ki; Step VII); format: biochemical
From the text: Once the protease inactivators were synthesized in the organic laboratory, they were to be tested for the lowest efficacious concentrations at which they induced 100% inhibition of the target protease (EC100). The top percent cocktail that was employed in the final vehicle selection step of Step III was employed as the source of competition for the inhibitors. In this case, this was the […] which was comprised of Z-FR-AFC, Z-FAR-AFC, Z-AP-AFC, Z-AAK-AFC, and Z-VLR-AFC. The final result would be a ranking of transition state candidate protease inactivators with a high ranking directly correlating to a low ECIoo value. The following steps describe the assay:
Step A: Initial Screening. To set up the test control, each protease inactivator was first incubated with the 5% cocktail (which provided the final differentiation of vehicles in Step III). To begin with, the protease inactivator was incubated at a concentration of 3×10^−9M in 500 μl of assay buffer (0.2 M Citrate, pH 4.9 supplemented with 10mM L-cysteine). This concentration was determined, after a series of inhibitor dilutions identified, to be the best inhibitor concentration at which a differentiation in inhibitor potential could be noted. Next, a concentration equal to 4×10^−5M for each of the individual cocktail components, was added to the mix. The components were allowed to equilibrate for a period of 30 minutes. […]
Percent inhibition was calculated as: [formula] […]
Step C: Determination ofInhibitor Ki and mode of inhibition, and re-ranking of EC100 list with inhibitor Ki. Ki of each of the top ranked protease inactivators, based upon low EC100 values, was assessed next for the top 5 EC100 inhibitors.
In order to determine Ki, all of the high Vmax cocktail substrates were employed for Ki determination (since Ki of the inhibitor for the enzyme is the same regardless of the substrate). To insure the highest accuracy, Ki was to be determined upon a minimum of at least three of the high Kcat substrates. […]

[2] = tested on: Trypsin; assay: Differential cleavage (selectivity) test; format: biochemical, human; details: pH 8.0, Z-R-AFC
Method: (§1) In order to perform the assay, the vehicle (for Step VI) or inhibitor (for Step IX) were incubated with the appropriate substrate in the correct assay buffer and allowed to equilibrate. Subsequently, the protease was added, and the assay was allowed to incubate for an appropriate time. The concentrations used in this experiment were as follows: Vehicle was set up at 4×10^−5 M in final assay buffer; Inhibitor was set up at 3×10^−10 M in the final assay buffer. Accordingly, the dosages employed should be the minimal amount of vehicle or inhibitor necessary to induce inhibition. […] Substrates were set up based upon the preferred substrate for cleavage of the particular enzyme.
(§2) Positive controls were set up similarly as described for test controls, except that solvent was added in substitution for the inhibitor or vehicle (in a volume equal to the volume of inhibitor or vehicle addition). All of the inhibitors and vehicles could be dissolved in dimethylsulfoxide (DMSO), and therefore, this was the solvent of choice. Negative controls were set up by adding the inhibitor or vehicle and the preferred substrates in a tube without the protease. All potential non-proteolytic liberation of AFC was therefore controlled for in this tube (a feature which also insured stability of the AFC substrates, since these substrates will freely liberate AFC when unstable).
(§3) All controls were set up in triplicate, and experiments were repeated a minimum of five times.
(§4) Percent inhibition was calculated as: [formula]
(§5) In this preliminary test, we employed the following human-derived enzymes (with indicated mechanistic class): Cathepsin B (cysteine), Cathepsin L (cysteine), Cathepsin H (cysteine), Cathepsin D (aspartic) Trypsin (serine), the purified Taenia solium cysteine protease, and the Taenia solium crude mix. Cathepsin B was prepared in an assay buffer of 10 mM L-cysteine in 0.4 M Citrate buffer, pH 6. 1, using Z-ARR-AFC as the cleavage substrate. Cathepsin L was prepared in an assay buffer of 10 mM L-cysteine in 0.4 M Citrate buffer, pH 5.5, using Z-FR-AFC as the cleavage substrate. Cathepsin H was prepared in an assay buffer of 10 mM L-cysteine in 0.15 M PBS buffer, pH 6.8, using L- R-AFC as the cleavage substrate. Cathepsin D was prepared in an assay buffer of 0.15 M PBS, pH 7.1, using Z-RGFFP-AFC as the cleavage substrate. Trypsin was prepared in an assay buffer of 0.15 M PBS, pH 8.0, supplemented with 100 mM CaCl2 and with Z-R-AFC as the cleavage substrate. Enzyme was incubated so that it was at least 50 times less than the concentration of substrate in order to insure saturating conditions.

[3] = molecular target: Cathepsin B (Homo sapiens, UniProt P07858); assay: Differential cleavage (selectivity) test; format: biochemical; details: pH 6.1, Z-ARR-AFC
Method: as §1, §2, §3, §4, §5

[4] = molecular target: Cathepsin D (Homo sapiens, UniProt P07339); assay: Differential cleavage (selectivity) test; format: biochemical; details: pH 7.1, Z-RGFFP-AFC
Cathepsin D, sequence (P07339 65-412): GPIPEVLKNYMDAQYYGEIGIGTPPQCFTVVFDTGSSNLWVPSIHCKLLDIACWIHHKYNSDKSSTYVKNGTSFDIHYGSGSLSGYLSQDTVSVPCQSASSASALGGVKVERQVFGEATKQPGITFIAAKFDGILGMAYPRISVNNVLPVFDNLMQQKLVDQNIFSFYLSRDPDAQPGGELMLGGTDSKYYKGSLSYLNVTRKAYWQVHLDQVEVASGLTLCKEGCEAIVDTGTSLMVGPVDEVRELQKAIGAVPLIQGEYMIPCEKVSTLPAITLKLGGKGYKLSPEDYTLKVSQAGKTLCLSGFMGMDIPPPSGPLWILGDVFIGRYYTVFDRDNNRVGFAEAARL
Method: as §1, §2, §3, §4, §5

[5] = molecular target: T1, Cathepsin H (Homo sapiens, UniProt P09668); assay: Differential cleavage (selectivity) test; format: biochemical; details: pH 6.8, L-R-AFC
T1 sequence (P09668 98-335): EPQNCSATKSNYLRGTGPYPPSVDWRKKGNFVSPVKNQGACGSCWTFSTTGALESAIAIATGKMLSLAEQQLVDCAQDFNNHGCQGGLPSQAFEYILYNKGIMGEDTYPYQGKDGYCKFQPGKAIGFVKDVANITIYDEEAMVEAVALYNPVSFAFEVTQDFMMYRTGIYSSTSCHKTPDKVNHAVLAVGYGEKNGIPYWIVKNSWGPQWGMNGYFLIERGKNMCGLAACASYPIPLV
Method: as §1, §2, §3, §4, §5

Row | SMILES | ranking of protease inactivators by inhibition / EC100 [1] | Percent inhibition of Trypsin (serine) ([2]; inhibitor 3×10^−10 M) [%] | Percent inhibition of Cathepsin B (cysteine) ([3]; inhibitor 3×10^−10 M) [%] | Percent inhibition of Cathepsin D (aspartic) ([4]; inhibitor 3×10^−10 M) [%] | Percent inhibition of Cathepsin H (cysteine) ([5]; inhibitor 3×10^−10 M) [%] | Percent inhibition of Trypsin (serine) ([2]; vehicle 4×10^−5 M) [%] | Percent inhibition of Cathepsin B (cysteine) ([3]; vehicle 4×10^−5 M) [%] | Percent inhibition of Cathepsin D (aspartic) ([4]; vehicle 4×10^−5 M) [%] | Percent inhibition of Cathepsin H (cysteine) ([5]; vehicle 4×10^−5 M) [%]
1 | CC(C)C[C@H](NC(=O)[C@H](CC(C)C)NC(=O)[C@H](CC(C)C)NC(=O)OCc1ccccc1)C(=O)CF [Z-LLL-FMK, Z-Leu-Leu-Leu-fluoromethylketone] (Cbz-Leu-Leu-Leu-CH2F) | top inhibitors | 0 | 0 | 0 | 0 | – | – | – | –
2 | CC(C)C[C@H](NC(=O)N1CCOCC1)C(=O)N[C@@H](Cc1ccc(O)cc1)C(=O)Nc1ccc2c(C(F)(F)F)cc(=O)oc2c1 [Mu-LY-AFC, Mu-Leu-Tyr-AFC] ({Morpholide-CO}-Leu-Tyr-{AFC}) | – | – | – | – | – | 0 | 0 | 0 | 0
3 | CC(C)C[C@H](NC(=O)OCc1ccccc1)C(=O)N[C@@H](CC(C)C)C(=O)N[C@@H](Cc1ccc(O)cc1)C(=O)CF [Z-LLY-FMK, Z-Leu-Leu-Tyr-FMK] (Cbz-Leu-Leu-Tyr-CH2F) | top inhibitors | 0 | 0 | 0 | 0 | – | – | – | –
